In US20200361914A1, “SUBSTITUTED BENZENE AND 6,5-FUSED BICYCLIC HETEROARYL COMPOUNDS” (Epizyme, Inc., priority 2014, published 2020):
Like-named read-outs stand apart in the source and are kept apart here.

Legend:
[1] = system: H3K27 trimethylation in WSU-DLCL2 cells; assay: WSU-DLCL2 methylation assay (H3K27me3 ELISA); type: cell-based, Human; settings: H3K27me3 normalised to total H3, read-out: EZH2 WSU ELISA IC50
Excerpt: WSU-DLCL2 Methylation Assay
WSU-DLCL2 suspension cells are purchased from DSMZ (German Collection of Microorganisms and Cell Cultures, Braunschweig, Germany). RPMI/Glutamax Medium, Penicillin-Streptomycin, Heat Inactivated Fetal Bovine Serum, and D-PBS were purchased from Life Technologies, Grand Island, N.Y., USA. Extraction Buffer and Neutralization Buffer (5×) were purchased from Active Motif, Carlsbad, Calif., USA. Rabbit anti-Histone H3 antibody is purchased from Abcam, Cambridge, Mass., USA. Rabbit anti-H3K27me3 and HRP-conjugated anti-rabbit-IgG are purchased from Cell Signaling Technology, Danvers, Mass., USA. TMB “Super Sensitive” substrate is sourced from BioFX Laboratories, Owings Mills, Md., USA. IgG-free Bovine Serum Albumin is purchased from Jackson ImmunoResearch, West Grove, Pa., USA. PBS with Tween (10×PBST) was purchased from KPL, Gaithersburg, Md., USA. Sulfuric Acid is purchased from Ricca Chemical, Arlington, Tex., USA. Immulon ELISA plates were purchased from Thermo, Rochester, N.Y., USA. V-bottom cell culture plates are purchased from Corning Inc., Corning, N.Y., USA.V-bottom polypropylene plates were purchased from Greiner Bio-One, Monroe, N.C., USA.
WSU-DLCL2 suspension cells are maintained in growth medium (RPMI 1640 supplemented with 10% v/v heat inactivated fetal bovine serum and 100 units/mL penicillin-streptomycin) and cultured at 37° C. under 5% CO2. Under assay conditions, cells are incubated in Assay Medium (RPMI 1640 supplemented with 20% v/v heat inactivated fetal bovine serum and 100 units/mL penicillin-streptomycin) at 37° C. under 5% CO2 on a plate shaker.
WSU-DLCL2 cells are seeded in assay medium at a concentration of 50,000 cells per mL to a 96-well V-bottom cell culture plate with 200 μL per well. Compound (1 μL) from 96 well source plates is added directly to V-bottom cell plate. Plates are incubated on a titer-plate shaker at 37° C., 5% CO2 for 96 hours. After four days of incubation, plates are spun at 241×g for five minutes and medium was aspirated gently from each well of cell plate without disturbing cell pellet. Pellet is resuspended in 200 μL DPBS and plates are spun again at 241×g for five minutes. The supernatant is aspirated and cold (4° C.) Extraction buffer (100 μL) is added per well. Plates are incubated at 4° C. on orbital shaker for two hours. Plates are spun at 3427×g x 10 minutes. Supernatant (80 μL per well) is transferred to its respective well in 96 well V-bottom polypropylene plate. Neutralization Buffer 5×(20 μL per well) is added to V-bottom polypropylene plate containing supernatant. V-bottom polypropylene plates containing crude histone preparation (CHP) are incubated on orbital shaker x five minutes. Crude Histone Preparations are added (2 μL per well) to each respective well into duplicate 96 well ELISA plates containing 100 μL Coating Buffer (1×PBS+BSA 0.05% w/v). Plates are sealed and incubated overnight at 4° C. The following day, plates were washed three times with 300 μL per well 1×PBST. Wells are blocked for two hours with 300 μL per well ELISA Diluent ((PBS (1×) BSA (2% w/v) and Tween20 (0.05% v/v)). Plates are washed three times with 1×PBST. For the Histone H3 detection plate, 100 μL per well are added of anti-Histone-H3 antibody (Abcam, ab1791) diluted 1:10,000 in ELISA Diluent. For H3K27 trimethylation detection plate, 100 μL per well are added of anti-H3K27me3 diluted 1:2000 in ELISA diluent. Plates are incubated for 90 minutes at room temperature. Plates are washed three times with 300 μL 1×PBST per well. For Histone H3 detection, 100 μL of HRP-conjugated anti-rabbit IgG antibody diluted to 1:6000 in ELISA diluent is added per well. For H3K27me3 detection, 100 μL of HRP conjugated anti-rabbit IgG antibody diluted to 1:4000 in ELISA diluent is added per well. Plates are incubated at room temperature for 90 minutes. Plates are washed four times with 1×PBST 300 μL per well. TMB substrate 100 μL is added per well. […]

[2] = biological target: wild-type PRC2 enzyme (EZH2 WT) (Homo sapiens, UniProt Q15910); assay: PRC2 enzyme assay on peptide substrate, wild-type EZH2
Chain of wild-type PRC2 enzyme (EZH2 WT) (Q15910 whole entry): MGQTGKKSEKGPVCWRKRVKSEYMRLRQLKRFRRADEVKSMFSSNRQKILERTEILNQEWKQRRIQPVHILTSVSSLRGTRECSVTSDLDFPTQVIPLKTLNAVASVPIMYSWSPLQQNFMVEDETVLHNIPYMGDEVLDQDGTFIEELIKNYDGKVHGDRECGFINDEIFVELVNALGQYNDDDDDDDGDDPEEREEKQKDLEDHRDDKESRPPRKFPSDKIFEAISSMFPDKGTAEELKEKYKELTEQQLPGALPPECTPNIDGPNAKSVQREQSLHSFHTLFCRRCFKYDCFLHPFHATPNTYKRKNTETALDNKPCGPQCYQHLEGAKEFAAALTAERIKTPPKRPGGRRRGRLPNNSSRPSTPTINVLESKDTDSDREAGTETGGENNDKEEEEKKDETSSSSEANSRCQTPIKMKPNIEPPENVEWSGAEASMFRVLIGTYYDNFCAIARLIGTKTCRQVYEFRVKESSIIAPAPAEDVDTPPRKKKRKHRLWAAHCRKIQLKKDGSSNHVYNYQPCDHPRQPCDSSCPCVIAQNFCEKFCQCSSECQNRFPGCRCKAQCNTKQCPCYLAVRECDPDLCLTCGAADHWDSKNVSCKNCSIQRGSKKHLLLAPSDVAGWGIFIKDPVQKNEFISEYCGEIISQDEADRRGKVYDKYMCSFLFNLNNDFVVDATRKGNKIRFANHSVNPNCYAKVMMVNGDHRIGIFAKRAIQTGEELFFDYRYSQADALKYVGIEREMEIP
Chain of wild-type PRC2 enzyme (EZH2 WT) (O75530 whole entry partner): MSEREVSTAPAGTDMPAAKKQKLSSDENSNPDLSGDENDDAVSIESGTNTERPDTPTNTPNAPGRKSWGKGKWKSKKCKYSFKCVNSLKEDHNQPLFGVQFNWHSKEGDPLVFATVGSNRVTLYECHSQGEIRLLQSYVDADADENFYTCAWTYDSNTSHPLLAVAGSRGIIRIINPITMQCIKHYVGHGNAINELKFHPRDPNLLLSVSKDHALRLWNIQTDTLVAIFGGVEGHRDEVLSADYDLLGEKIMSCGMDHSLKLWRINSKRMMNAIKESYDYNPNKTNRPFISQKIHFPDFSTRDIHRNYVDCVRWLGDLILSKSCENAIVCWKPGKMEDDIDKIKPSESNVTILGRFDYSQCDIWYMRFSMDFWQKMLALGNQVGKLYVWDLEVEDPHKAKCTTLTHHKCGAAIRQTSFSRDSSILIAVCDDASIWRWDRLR
Chain of wild-type PRC2 enzyme (EZH2 WT) (Q15022 whole entry partner): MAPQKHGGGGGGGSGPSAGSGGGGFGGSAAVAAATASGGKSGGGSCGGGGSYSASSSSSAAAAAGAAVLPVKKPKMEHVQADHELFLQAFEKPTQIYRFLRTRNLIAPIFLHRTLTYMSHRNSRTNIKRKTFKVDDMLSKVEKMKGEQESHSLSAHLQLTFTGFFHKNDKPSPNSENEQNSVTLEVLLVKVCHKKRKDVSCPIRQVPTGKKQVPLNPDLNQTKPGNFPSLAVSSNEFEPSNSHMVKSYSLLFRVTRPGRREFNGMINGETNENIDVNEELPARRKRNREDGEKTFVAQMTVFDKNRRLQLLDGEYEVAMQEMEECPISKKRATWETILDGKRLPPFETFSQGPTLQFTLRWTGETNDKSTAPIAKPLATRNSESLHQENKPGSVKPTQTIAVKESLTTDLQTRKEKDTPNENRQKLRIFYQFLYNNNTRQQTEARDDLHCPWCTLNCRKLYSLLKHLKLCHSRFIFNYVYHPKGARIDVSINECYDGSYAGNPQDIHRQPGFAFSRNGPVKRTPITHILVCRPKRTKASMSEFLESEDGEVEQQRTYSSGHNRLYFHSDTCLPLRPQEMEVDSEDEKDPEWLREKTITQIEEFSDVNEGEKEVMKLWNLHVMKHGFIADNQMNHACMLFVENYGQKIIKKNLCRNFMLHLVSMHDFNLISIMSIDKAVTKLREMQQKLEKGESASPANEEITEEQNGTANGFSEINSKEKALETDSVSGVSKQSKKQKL
Chain of wild-type PRC2 enzyme (EZH2 WT) (Q09028 whole entry partner): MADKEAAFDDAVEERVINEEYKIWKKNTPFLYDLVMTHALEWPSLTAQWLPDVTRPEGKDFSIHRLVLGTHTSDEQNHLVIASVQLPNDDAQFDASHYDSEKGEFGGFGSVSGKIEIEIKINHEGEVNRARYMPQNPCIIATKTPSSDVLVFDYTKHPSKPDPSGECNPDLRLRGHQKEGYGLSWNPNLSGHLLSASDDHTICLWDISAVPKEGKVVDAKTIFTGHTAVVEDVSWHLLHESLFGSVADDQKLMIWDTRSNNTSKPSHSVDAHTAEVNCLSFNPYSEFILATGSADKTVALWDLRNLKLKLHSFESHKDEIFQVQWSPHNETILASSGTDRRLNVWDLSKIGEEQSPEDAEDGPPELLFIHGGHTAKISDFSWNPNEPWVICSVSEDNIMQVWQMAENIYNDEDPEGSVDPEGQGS
Excerpt: (§1) S-adenosylmethionine (SAM), S-adenosylhomocyteine (SAH), bicine, KCl, Tween20, dimethylsulfoxide (DMSO) and bovine skin gelatin (BSG) can be purchased from Sigma-Aldrich at the highest level of purity possible. Dithiothreitol (DTT) was purchased from EMD. ^3H-SAM can be purchased from American Radiolabeled Chemicals with a specific activity of 80 C1/mmol. 384-well streptavidin Flashplates can be purchased from PerkinElmer.
(§2) Recombinant PRC2 Enzymes. Human PRC2 enzymes are purified as 4-component enzyme complexes co-expressed in Spodoptera frugiperda (sf9) cells using a baculovirus expression system. […] The EED subunit contains an N-terminal FLAG tag that is used to purify the entire 4-component complex from sf9 cell lysates. The purity of the complexes meets or exceeds 95% as determined by SDS-PAGE and Agilent Bioanalyzer analysis.
(§3) General Procedure for PRC2 Enzyme Assays on Peptide Substrates. The assays are all performed in a buffer consisting of 20 mM bicine (pH=7.6), 0.5 mM DTT, 0.005% BSG and 0.002% Tween20, prepared on the day of use. […] DMSO (1 μL) is added to columns 11, 12, 23, 24, rows A-H for the maximum signal control, and SAH, a known product and inhibitor of PRC2 (1 μL) is added to columns 11, 12, 23, 24, rows I-P for the minimum signal control. A cocktail (40 μL) containing the wild-type PRC2 enzyme and H3K27me0 peptide or any of the Y641 mutant enzymes and H3K27me2 peptide is added by Multidrop Combi (Thermo). The compounds are allowed to incubate with PRC2 for 30 min at 25° C., then a cocktail (10 μL) containing a mixture of non-radioactive and ^3H-SAM is added to initiate the reaction (final volume=51 μL). […] The assays are stopped by the addition of non-radioactive SAM (10 μL) to a final concentration of 600 μM, which dilutes the ^3H-SAM to a level where its incorporation into the peptide substrate is no longer detectable. 50 μL of the reaction in the 384-well polypropylene plate is then transferred to a 384-well Flashplate and the biotinylated peptides are allowed to bind to the streptavidin surface for at least 1h before being washed three times with 0.1% Tween20 in a Biotek ELx405 plate washer. The plates are then read in a PerkinElmer TopCount platereader to measure the quantity of ^3H-labeled peptide bound to the Flashplate surface, measured as disintegrations per minute (dpm) or alternatively, referred to as counts per minute (cpm).
(§4) Where dpm=disintegrations per minute, cmpd=signal in assay well, and min and max are the respective minimum and maximum signal controls.
(§5) Where top and bottom are the normally allowed to float, but may be fixed at 100 or 0 respectively in a 3-parameter fit. The Hill Coefficient normally allowed to float but may also be fixed at 1 in a 3-parameter fit. Y is the % inhibition and X is the compound concentration.

[3] = biological target: Y641 mutant PRC2 enzyme (EZH2 Y641) (Homo sapiens, UniProt Q15910, Y641F); assay: PRC2 enzyme assay on peptide substrate, Y641 mutant EZH2
Chain of Y641 mutant PRC2 enzyme (EZH2 Y641) (Q15910 whole entry Y641F): as the sequence (Q15910 whole entry) above, with Y641F counted along it
Chain of Y641 mutant PRC2 enzyme (EZH2 Y641) (O75530 whole entry partner): as the sequence (O75530 whole entry partner) above
Chain of Y641 mutant PRC2 enzyme (EZH2 Y641) (Q15022 whole entry partner): as the sequence (Q15022 whole entry partner) above
Chain of Y641 mutant PRC2 enzyme (EZH2 Y641) (Q09028 whole entry partner): as the sequence (Q09028 whole entry partner) above
Excerpt: as §1, §2, §3, §4, §5

[4] = Homo sapiens, WSUDLCL2, 96 h, 96 hours incubation
[5] = Homo sapiens, WSUDLCL2, 96 hours incubation

Cc1cc(C)c(CNC(=O)c2c(C)n(C(C)C3CCOCC3)c3ccccc23)c(=O)[nH]1 (racemic) [compound 19, N-((4,6-dimethyl-2-oxo-1,2-dihydropyridin-3-yl)methyl)-2-methyl-1-(1-(tetrahydro-2H-pyran-4-yl)ethyl)-1H-indole-3-carboxamide]
IC50 [1, 4]: 1 to 10 µM

COc1cc(C)[nH]c(=O)c1CNC(=O)c1c(C)n(C(C)C2CCOCC2)c2ccccc12 (racemic) [compound 24, N-((4-methoxy-6-methyl-2-oxo-1,2-dihydropyridin-3-yl)methyl)-2-methyl-1-(1-(tetrahydro-2H-pyran-4-yl)ethyl)-1H-indole-3-carboxamide]
IC50 [1, 4]: 1 to 10 µM

COc1cc(C)[nH]c(=O)c1CNC(=O)c1c(C)n(C(C)C2CCOCC2)c2ccccc12 (single isomer, unassigned) [24a, N-((4-methoxy-6-methyl-2-oxo-1,2-dihydropyridin-3-yl)methyl)-2-methyl-1-(1-(tetrahydro-2H-pyran-4-yl)ethyl)-1H-indole-3-carboxamide]
IC50 ([1]; 96 hours incubation): 10 to 50 µM

COc1cc(C)[nH]c(=O)c1CNC(=O)c1c(C)n(C(C)C2CCOCC2)c2ccccc12 (single isomer, unassigned) [24b, N-((4-methoxy-6-methyl-2-oxo-1,2-dihydropyridin-3-yl)methyl)-2-methyl-1-(1-(tetrahydro-2H-pyran-4-yl)ethyl)-1H-indole-3-carboxamide]
IC50 ([1]; 96 hours incubation): 1 to 10 µM

Cc1cc(C)c(CNC(=O)c2ccc(C(C)Oc3ccccc3)cc2C)c(=O)[nH]1 (centres unmarked) [compound 5, N-((4,6-dimethyl-2-oxo-1,2-dihydropyridin-3-yl)methyl)-2-methyl-4-(1-phenoxyethyl)benzamide]
IC50 [1, 5]: 10 to 50 µM | IC50 [2]: 0.1 to 1 µM | IC50 [3]: 0.1 to 1 µM

Cc1cc(=O)c(CNC(=O)c2ccc(C(C)Oc3ccccc3)cc2C)c(C)[nH]1 (centres unmarked) [compound 6, N-((2,6-dimethyl-4-oxo-1,4-dihydropyridin-3-yl)methyl)-2-methyl-4-(1-phenoxyethyl)benzamide]
IC50 [1, 5]: > 25 µM | IC50 [2]: > 50 µM | IC50 [3]: 10 to 50 µM

Cc1cc(C)c(CNC(=O)c2cc(Cl)c(C(C)Oc3ccccc3)cc2C)c(=O)[nH]1 (centres unmarked) [compound 12, 5-chloro-N-((4,6-dimethyl-2-oxo-1,2-dihydropyridin-3-yl)methyl)-2-methyl-4-(1-phenoxyethyl)benzamide]
IC50 [1, 5]: > 25 µM | IC50 [2]: 0.1 to 1 µM | IC50 [3]: < 0.1 µM

Cc1cc(=O)c(CNC(=O)c2cc(Cl)c(Oc3cccc(-c4ccnnc4)c3C#N)cc2C)c(C)[nH]1 [compound 16, 5-chloro-4-(2-cyano-3-(pyridazin-4-yl)phenoxy)-N-((2,6-dimethyl-4-oxo-1,4-dihydropyridin-3-yl)methyl)-2-methylbenzamide]
IC50 [1, 5]: > 25 µM

CCC(C)n1cc(C)c2c(C(=O)NCc3c(C)[nH]c(C)cc3=O)cc(-c3ccc(N4CCNCC4)nc3)cc21 (centres unmarked) [compound 25, 1-(sec-butyl)-N-((2,6-dimethyl-4-oxo-1,4-dihydropyridin-3-yl)methyl)-3-methyl-6-(6-(piperazin-1-yl)pyridin-3-yl)-1H-indole-4-carboxamide]
IC50 [1, 5]: 10 to 50 µM | IC50 [2]: < 0.1 µM | IC50 [3]: < 0.1 µM

CCN(c1cc(-c2ccc(OCCOC)cc2)cc(C(=O)NC2CC(C)(C)NC(C)(C)C2)c1C)[C@H]1CC[C@H](N(C)C)CC1 [compound 33, 5-(((trans)-4-(dimethylamino)cyclohexyl)(ethyl)amino)-4′-(2-methoxyethoxy)-4-methyl-N-(2,2,6,6-tetramethylpiperidin-4-yl)-[1,1′-biphenyl]-3-carboxamide]
IC50 [1, 5]: > 25 µM | IC50 [2]: 10 to 50 µM | IC50 [3]: 10 to 50 µM
